From patent publication US20250354192A1, “METHODS FOR QUANTIFYING LIVE BACTERIA” (priority 2022, published 2025)

How the values were obtained:
E. coli = experiment: Cell doubling control with DL-serine hydroxamate, OD600 and EDA click labeling on PIPER; assay type: cell-based
Experimental: E. coli was grown overnight at 37° C. The next day, cells were diluted into fresh media and grown for 2 hours. Next, +/−DL-serine hydroxamate (SHX; 1 mg/ml) and EDA (1 mM) were added. OD600 was taken every 20 min for 90 min. Aliquots of cells at the last time point were pelleted by centrifugation (10 min 10,000 g), and supernatant was discarded. Bacteria were washed with 1 mL of 1× PBS, pelleted by centrifugation (10 min 10,000 g), and supernatant was discarded. Cell pellets were resuspended in click reaction solution containing 200 μM copper sulfate (II) (MilliporeSigma, Burlington, MA), 128 μM THPTA ligand (Lumiprobe, Hunt Valley, MD), 2.5 mM Ascorbic acid (MilliporeSigma, Burlington, MA), 25 μM CF488 picolyl azide fluorescent dye (Biotium, Fremont, CA) and incubated for 30 min at room temperature. Cells were pelleted by centrifugation (10 min 10,000 g), supernatant was discarded, and pellets were resuspended 1 mL of 1× PBS. Finally, pellets were resuspended in PBS, mixed with ferrofluid and processed in the non-capture assay on PIPER. An automated bacterial image recognition algorithm determined labeled cell counts.

[1] = test system: Bacillus, Enterococcus, Listeria, Salmonella, and Klebsiella; experiment: NADA-Green labeling of live versus heat-killed bacteria, PIPER non-capture assay; assay type: cell-based; conditions: 1 mM, 60 minutes; live log phase or heat-killed 15 minutes at 70° C.
Experimental: Accordingly, as shown in FIG. 2A-E, NADA-Green labels live bacteria and illustrates five (5) different strains (Bacillus, Enterococcus, Listeria, Salmonella, and Klebsiella) of log phase bacteria growing at 37° C. in brain heart infusion (BHI) media or heat-killed for 15 minutes at 70° C. were incubated with or without the fluorescent D-amino acid, NADA-Green at 1 mM (Bio-Techne, Minneapolis, MN) for 60 minutes. Cells were pelleted to remove the excess dye and resuspended in 1X phosphate buffered saline (PBS). Each sample was then split into two tubes. To one of the tubes, SYBR Green (ThermoFisher Scientific, Waltham, Massachusetts) was added in 1:100 dilution. All samples were processed on Ancera Inc.'s PIPER™ platform (“PIPER”) in a non-capture assay and analyzed by a bacterial image recognition algorithm to determine labeled cell counts. […] SYBR labeling confirmed that the dead cells remained intact on the instrument.

Salmonella Typhimuirum = experiment: Time course of labeling with NADA-Green, PIPER cartridge coated with Salmonella-specific antibody; assay type: cell-based; conditions: 1 mM, 30 minutes or 90 minutes, 37° C. in BHI
Experimental: Cells were pelleted by centrifugation (10 min 10,000 g) to remove the excess dye, resuspended in 1×PBS, mixed with ferrofluid, and processed on PIPER using a cartridge having areas coated with a Salmonella-specific antibody.

[2] = test system: gram-positive and gram-negative bacteria; experiment: Labeling of gram-positive and gram-negative bacteria with NADA-Green, PIPER non-capture assay; assay type: cell-based, five (5) different strains of log phase bacteria; conditions: 1 mM, 90 minutes
Experimental: FIG. 4 depicts the labeling of gram-positive and gram-negative bacteria with NADA-Green with the five (5) different strains of log phase bacteria (see FIGS. 2A-E) growing at 37° C. in BHI media, and then incubated with 1 mM NADA-Green (Bio-Techne, Minneapolis, MN) for 90 minutes. Cells were pelleted by centrifugation (10 min 10,000 g) to remove the excess dye, resuspended in 1×PBS, mixed with ferrofluid, and processed on PIPER in a non-capture assay.

[3] = test system: eight (8) different strains of log phase bacteria; experiment: Quantification of cells labeled with NADA-Green in eight strains, PIPER image recognition algorithm; assay type: cell-based; conditions: 1 mM, 60 minutes
Source text: FIG. 5A depicts the quantification of cells labeled with NADA-Green in eight (8) different strains of log phase bacteria. FIG. 5B depicts the quantification of cell labelling efficiency by NADA-Green in eight (8) different strains of log phase bacteria (SE—Salmonella enterica; EC—Escherichia coli; KP—Klebsiella pneumoniae; CF—Citrobacter freundii; SA—Staphylococcus aureus; BC—Bacillus cereus; LM—Listeria monocytogenes; PA—Pseudomonas aeruginosa), determined as a percentage of NADA-labelled PIPER cell counts to the SYBR-labelled PIPER cell counts. Cells growing at 37° C. in BHI media were incubated with 1 mM NADA-Green (Bio-Techne, Minneapolis, MN) for 60 minutes. Cells were pelleted by centrifugation (10 min 10,000 g) to remove the excess dye, resuspended in 1×PBS, mixed with ferrofluid, and processed on PIPER in a non-capture assay. An automated bacterial image recognition algorithm determined labeled cell counts.

[4] = test system: Salmonella Typhimurium, Staphylococcus aureus, or a mixture of the two strains; experiment: Labeling of a mixed culture with NADA-Green, PIPER non-capture assay; assay type: cell-based; conditions: 1 mM, 60 minutes, 37° C.
Experimental: Even with efficient uptake of the D-amino acid analog, gram-negative bacteria may not stain as brightly as gram-positive bacteria because gram-negative bacteria have a much thinner peptidoglycan layer. […] For example, FIGS. 12A-B depict labeling of a mixed culture with NADA-Green. A log phase culture of Salmonella Typhimurium, Staphylococcus aureus, or a mixture of the two strains was incubated at 37° C. with 1 mM NADA-Green Bio-Techne, Minneapolis, MN) for 60 minutes. Cells were pelleted by centrifugation (10 min 10,000 g) to remove the excess dye, resuspended in 1×PBS, mixed with ferrofluid, and processed on PIPER in a non-capture assay. […] Salmonella cells appear smaller and dimmer in the image than Staph. aureus cells.

[5] = test system: Eight (8) different species of bacteria; experiment: Bacterial growth (OD600) of cold-stressed cultures in BHI with or without chloramphenicol; assay type: cell-based; conditions: 5 μg/mL in BHI, 37° C., 2-hour observation window
Experimental: Eight (8) different species of bacteria (Salmonella enterica, E. coli, Klebsiella pneumoniae, Citrobacter freundii, Staphylococcus aureus, Bacillus cereus, Listeria monocytogenes and Pseudomonas aeruginosa) were propagated from frozen stocks onto TSA plates and incubated at 37° C. for 24 hours. To induce cold-stress, a loopful of cells from each plate was transferred into 3 mL of Butterfield's Phosphate Buffer, vortexed to suspend the cells, and placed at 4° C. for 1 day. The following day, cells from each culture were pelleted for 10 minutes at 10,000 g and resuspended in BHI (FIG. 19A) or BHI containing 5 μg/mL of chloramphenicol (FIG. 19B). Each culture was normalized to an absorbance value at 600 nm (OD600) of 0.05 and loaded in triplicate onto a sterile microplate at 0.2 mL per well. The microplate was covered with BreatheEasy film and bacterial growth was monitored using a SpectroStar Nano spectrophotometer (BMG Labtech, Cary, NC) for 24 hours. During growth, the temperature was maintained at 37° C. and the plate was automatically shaken prior to OD600 readings every 10 minutes. […] OD600 observations were validated using the “gold-standard” petrifilm counts (3M) (FIG. 19C). […]

[6] = test system: Klebsiella pneumoniae (KP); experiment: APC petrifilm counts before and after 90 minutes incubation with or without chloramphenicol; assay type: cell-based; conditions: 5 μg/mL, 37° C. for 90 minutes
Experimental: (§1) Eight (8) different species of bacteria (Salmonella enterica, E. coli, Klebsiella pneumoniae, Citrobacter freundii, Staphylococcus aureus, Bacillus cereus, Listeria monocytogenes and Pseudomonas aeruginosa) were propagated from frozen stocks onto TSA plates and incubated at 37° C. for 24 hours. To induce cold-stress, a loopful of cells from each plate was transferred into 3 mL of Butterfield's Phosphate Buffer, vortexed to suspend the cells, and placed at 4° C. for 1 day. The following day, cells from each culture were pelleted for 10 minutes at 10,000 g and resuspended in BHI (FIG. 19A) or BHI containing 5 μg/mL of chloramphenicol (FIG. 19B). Each culture was normalized to an absorbance value at 600 nm (OD600) of 0.05 and loaded in triplicate onto a sterile microplate at 0.2 mL per well. The microplate was covered with BreatheEasy film and bacterial growth was monitored using a SpectroStar Nano spectrophotometer (BMG Labtech, Cary, NC) for 24 hours. During growth, the temperature was maintained at 37° C. and the plate was automatically shaken prior to OD600 readings every 10 minutes. […] A cold-stressed Klebsiella pneumoniae (KP) culture prepared as described above was transferred into BHI or BHI containing 5 μg/mL of chloramphenicol and either plated immediately or placed at 37° C. for 90 minutes. […]

[7] = test system: Klebsiella pneumoniae (KP); experiment: 3-step metabolic labeling with EDA with or without chloramphenicol, detection on PIPER; assay type: cell-based; conditions: 5 μg/mL, 1 mM EDA, 37° C. for 90 min
Experimental: as §1

B. cereus (ATCC 33019) = conditions: ethanol 70%, 5 to 10 min at room temperature
Experimental: (§2) Experimental Detail: A single colony of each indicated bacteria was inoculated into BHI and incubated overnight at 37° C. On the next day, the cells were diluted into fresh BHI and incubated for 2 h at 37° C. followed by an additional 90-minute incubation in the presence or absence of 1 mM EDA, where indicated. Where indicated, an aliquot of each culture was mixed with 96% ethanol to a final concentration of 70% (A, B) or 25% (C) and incubated for 5 to 10 min at room temperature. Cultures not exposed to ethanol were incubated for an equal amount of time in 1×PBS. Cells were pelleted by centrifugation for 10 min at 10,000 g, and supernatant containing excess EDA and ethanol was discarded. Cells were then resuspended in 300 μL of 1×PBS and pelleted again by centrifugation (10 min at 10,000 g). The 3rd step was carried out by resuspending cell pellets in 0.25 mL of 1×PBS solution containing 200 μM copper sulfate (II) (MilliporeSigma, Burlington, MA), 128 μM THPTA ligand (Lumiprobe, Hunt Valley, MD), 2.5 mM Ascorbic acid (MilliporeSigma, Burlington, MA), 25 μM CF488 picolyl azide fluorescent dye (Biotium, Fremont, CA), and 5% DMSO (Thermo Fisher Scientific, Waltham, MA). After a 30-minute incubation at room temperature, 500 μL of 1×PBS was added to each reaction, and cells were harvested by centrifugation (10 min at 10,000 g). Supernatant containing excess dye and reaction components was discarded, cells were washed with 500 μL of 1×PBS, and the cells were pelleted again by centrifugation. Finally, each cell pellet was resuspended in 0.3 mL of 1×PBS and mixed with an equal volume of ferrofluid. All samples were run on PIPER, and cell counts were generated by image analysis using an automated bacterial image recognition algorithm.

E. coli (ATCC 35421) = conditions: 5 or 10 minutes with ethanol; cells grown in the presence of EDA
Experimental: as §2

[8] = test system: Salmonella enterica (ATCC 12023), Klebsiella pneumoniae (ATCC 13882), Citrobacter freundii (ATCC 8090), and E. coli (ATCC 35421); conditions: ethanol 25%, N=3
Experimental: as §2

NC(CO)C(=O)NO (racemic) [DL-Serine hydroxamate, DL-serine hydroxamate]
labeling with EDA and click reaction in the presence of the agent (E. coli; 1 mg/ml SHX, 1 mM EDA): does not prevent labeling
doubling of fast-growing cells (OD600) (E. coli; 1 mg/ml, OD600 every 20 min for 90 min): slows doubling of fast-growing cells

N[C@H](CNc1ccc([N+](=O)[O-])c2nonc12)C(=O)O [NADA-Green]
labeled cell counts above background noise, live versus heat-killed cells [1]: Only live cells labeled with NADA-Green were counted above background noise
interference with cell growth or capture by the antibody (Salmonella Typhimuirum): does not interfere with cell growth or capture by the antibody
labeling of bacteria [2]: labels both gram-positive and gram-negative bacteria
detection of labeled strains by the image recognition algorithm [3]: All labeled strains except Pseudomonas were detected
PIPER counts in mixed culture versus individual cultures [4]: counts in the mixed culture are approximately additive of the counts for each individual culture

O=C(N[C@H](CO)[C@H](O)c1ccc([N+](=O)[O-])cc1)C(Cl)Cl [chloramphenicol]
doubling (OD600) [5]: prevented doubling in all 8 strains
cell doubling by APC petrifilm counts [6]: prevented cell doubling
PIPER cell counts versus sample without chloramphenicol [7]: slight decrease in cell counts
interference with 3-step metabolic labeling and detection on PIPER [7]: did not interfere with 3-step metabolic labeling and detection on PIPER

CCO [ethanol]
CuAAC labeling with or without ethanol treatment (B. cereus (ATCC 33019)): occurred efficiently both with or without ethanol treatment
detection after ethanol incubation prior to the click reaction (E. coli (ATCC 35421)): dramatically improved detection
cell counts, cell mean intensity and variability across technical replicates [8]: improved cell counts and/or cell mean intensity and reduced the variability across technical replicates
